Data: paper PMC10820890, “Potential of Tryptamine Derivatives as Multi-Target Directed Ligands for Alzheimer’s Disease: AChE, MAO-B, and COX-2 as Molecular Targets” (Molecules, 2024)
Read-outs that look alike come from different tables or passages of the source.

Columns and labels:
Human recombinant COX-2 = target: T1, Human recombinant COX-2 (Homo sapiens, UniProt P35354); experiment: In vitro fluorometric COX-2 inhibition assay kit; type: biochemical; settings: compounds tested at 100 µM, mean of three independent measurements; for inhibition at 100 µM: read-out: COX-2 (%Inhibition ± SD)
T1 construct: purchased BioVision (kit manual cited); the text also says reagents came from Sigma-Aldrich K547
T1 sequence (P35354 18-604): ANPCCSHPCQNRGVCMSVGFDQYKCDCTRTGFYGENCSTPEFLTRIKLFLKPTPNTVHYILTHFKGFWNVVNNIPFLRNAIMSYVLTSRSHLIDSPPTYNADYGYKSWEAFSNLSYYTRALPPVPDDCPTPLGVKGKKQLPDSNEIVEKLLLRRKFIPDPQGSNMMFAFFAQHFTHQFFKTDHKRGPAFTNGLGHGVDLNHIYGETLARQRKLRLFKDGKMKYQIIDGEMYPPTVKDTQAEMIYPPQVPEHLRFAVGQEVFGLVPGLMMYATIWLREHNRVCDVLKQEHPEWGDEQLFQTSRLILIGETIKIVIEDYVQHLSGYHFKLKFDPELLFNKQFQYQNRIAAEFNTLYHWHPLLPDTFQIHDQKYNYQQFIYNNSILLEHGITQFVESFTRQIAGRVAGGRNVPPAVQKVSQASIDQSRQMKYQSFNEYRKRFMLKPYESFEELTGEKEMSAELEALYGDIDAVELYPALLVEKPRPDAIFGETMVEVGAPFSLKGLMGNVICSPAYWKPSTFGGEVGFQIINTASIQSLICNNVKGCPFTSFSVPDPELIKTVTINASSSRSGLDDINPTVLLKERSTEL
Description: The fluorometric COX-2 inhibition assay kit provides a simple, fast, sensitive, and consistent method appropriate for carrying out high-throughput analysis for COX-2 inhibitors. The assay is based on the formation of prostaglandin G2 (PG2), which is an intermediate made from arachidonic acid under the action of the COX-2 enzyme. The reagents were prepared, and testing procedures were executed according to these recommended guidelines. The fluorescence of the samples was measured in an opaque 96-well plate at a temperature of 37 °C, precisely 5 min after the initiation of the experiment, utilizing a microplate reader from Thermo Scientific, USA. All compounds were tested at a concentration of 100 µM in a DMSO-1% solution. […] Dilutions were prepared in sodium phosphate buffer 0.1 M, pH 7.4. All the reagents were purchased from Sigma-Aldrich, St. Louis, MO, USA. The mean fluorescence values were calculated to determine the percentage of inhibition achieved by each compound. […] Each experiment was conducted in triplicate, and the percent inhibition was calculated using the following formula: % Inhibition=fluorescence of control−fluorescence of test compound/fluorescence of control×100

AChE from electric eel = AChE from electric eel (Electrophorus electricus, UniProt O42275); experiment: biochemical; settings: mean of three independent measurements, read-out: AChE (IC50 ± SD)
Chain of AChE from electric eel (O42275 24-633): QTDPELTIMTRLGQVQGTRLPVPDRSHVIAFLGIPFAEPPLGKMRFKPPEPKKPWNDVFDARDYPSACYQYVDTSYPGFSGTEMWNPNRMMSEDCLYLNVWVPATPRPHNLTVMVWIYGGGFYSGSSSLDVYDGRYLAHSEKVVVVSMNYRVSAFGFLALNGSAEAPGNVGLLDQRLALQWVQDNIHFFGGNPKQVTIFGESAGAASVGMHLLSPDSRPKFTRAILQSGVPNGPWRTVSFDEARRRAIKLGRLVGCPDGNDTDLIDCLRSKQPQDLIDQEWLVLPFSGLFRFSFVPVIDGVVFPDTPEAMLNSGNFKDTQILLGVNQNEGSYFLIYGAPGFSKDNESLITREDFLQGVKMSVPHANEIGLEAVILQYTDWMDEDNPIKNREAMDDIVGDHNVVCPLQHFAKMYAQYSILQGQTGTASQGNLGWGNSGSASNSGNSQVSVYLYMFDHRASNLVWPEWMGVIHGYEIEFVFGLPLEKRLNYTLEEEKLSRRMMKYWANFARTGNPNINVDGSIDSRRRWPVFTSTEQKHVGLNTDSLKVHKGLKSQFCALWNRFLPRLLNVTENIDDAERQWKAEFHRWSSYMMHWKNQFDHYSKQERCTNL
Text: The AChE inhibitory potential of the synthesized tryptamine derivatives was investigated using a modified Ellman’s method. In this enzymatic assay, thiocholine, the product of enzymatic hydrolysis, lacks a substantial chromophore for UV detection. Therefore, Ellman’s reagent (DTNB) was employed as the chromogenic chemical. Ellman’s procedure for the in vitro acetylcholinesterase inhibition assay is based on a two-step reaction involving the chemical components DTNB (5,5-dithiobis(2-nitro) benzoic acid), a hydrolyzed substrate (thiocholine), and the enzyme AChE [59]. In the first step, the substrate acetylthiocholine iodide undergoes hydrolysis catalyzed by the AChE enzyme, resulting in the formation of thiocholine and acetic acid. In the second step, TNB (5-thio-2-nitrobenzoic acid) is generated by the reaction between Ellman’s reagent (DTNB) and thiocholine through an electron-shifting process to sulfur. […] Higher enzyme activity is reflected by an increase in absorbance at this wavelength. The formation of TNB is directly associated with the hydrolysis of acetylthiocholine iodide. Each reaction was initiated by taking a 2 mL working solution, which consisted of 150 µL of the sample (either test compounds or positive control), 50 µL of 0.22 units/mL acetylcholinesterase enzyme from electric eel origin (AChE, E.C. 3.1.1.7, in lyophilized powder, ≥1000 unit), and sodium phosphate buffer (0.1 M, pH 7.4), making it up to a total of 2 mL. The working solution was then incubated at room temperature ([…]) for 15 min, after which 1 mL of Ellman’s solution (200 µL of 75 mM ACTI and 500 µL of 10 mM DTNB in 15 mL sodium phosphate buffer) was added. The stock solutions of tryptamine analogs were prepared in dimethyl sulfoxide (DMSO) 100%. […] All chemicals were purchased from Sigma-Aldrich, St. Louis, MO, USA and TCI Tokyo Chemical Industry Co., Ltd., Saitama, Japan. […] A negative control reaction was also performed under the same conditions but without the inclusion of samples. In this assay, the blank consisted of sodium phosphate buffer. Each experiment was conducted in triplicate.
The percentage of acetylcholinesterase inhibition activity for each tested dilution was calculated using the following equation: Percent inhibition activity%=Absorbance of control−Absorbance of test/Absorbanec of control×100
The results were then presented in a tabular format as the mean IC50 ± SD. The IC50 values, which represent the half-maximal inhibitory concentration, were determined by creating a graph that relates different concentrations (µM) to the percent inhibition (%) using the linear regression method provided by GraphPad Prism software 7 [61, 62, 63].

[1] = target: T2, MAO-B extracted from the rat brain (Rattus norvegicus, UniProt P19643); experiment: MAO-B inhibition, Amplex Red monoamine oxidase assay kit; type: biochemical
T2 construct: Synaptosomes containing the MAO enzyme were isolated from the rat brain; from tissue; host or cells: rat brain synaptosomes (Dawley rats)
T2 sequence (P19643 1-520): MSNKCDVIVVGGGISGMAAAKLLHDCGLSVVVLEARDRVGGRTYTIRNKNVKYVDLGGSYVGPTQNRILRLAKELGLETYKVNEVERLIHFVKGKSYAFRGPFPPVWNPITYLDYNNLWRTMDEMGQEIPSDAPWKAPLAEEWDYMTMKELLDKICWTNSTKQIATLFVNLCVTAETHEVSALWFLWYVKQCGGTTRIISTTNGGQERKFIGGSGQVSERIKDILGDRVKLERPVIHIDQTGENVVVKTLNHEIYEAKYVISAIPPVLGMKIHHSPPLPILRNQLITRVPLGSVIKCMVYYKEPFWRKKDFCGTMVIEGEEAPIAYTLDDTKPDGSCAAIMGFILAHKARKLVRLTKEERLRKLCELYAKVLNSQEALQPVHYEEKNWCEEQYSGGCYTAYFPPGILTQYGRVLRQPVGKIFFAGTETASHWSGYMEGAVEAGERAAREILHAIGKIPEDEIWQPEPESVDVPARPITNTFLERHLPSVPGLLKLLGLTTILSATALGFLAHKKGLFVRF
Text: Synaptosomes containing the MAO enzyme were isolated from the rat brain by the method of Hojas, with some modification. Three Dawley rats of any sex with weight ranging from 200–250 gm were decapitated after administration of an anesthetic agent (mixture of propofol and xylocaine). Immediately, complete brains were removed from the bed of ice on a petri dish, and the brains were washed with ice-chilled PBS (phosphate-buffered saline) of pH 7.0, 0.1M and normal saline. Then, each brain, weighing approximately 1 g, was suspended into 10 mL of ice-chilled […] sucrose pH 7.4 20% w/v accordingly and homogenized for 10 min using Daihan homogenizer HG-15A. Brain homogenate was transferred into a centrifuge tube and centrifuged at a speed of 7500× g rpm for 15 min at 4 °C by a Scan Speed 1730R Microcentrifuge from Labo Gene, Marlborough, MA, USA. The supernatant was preserved, and the solid brain mass debris present on the bottom was discarded. The supernatant was then diluted with ice-chilled distilled PBS as per need and centrifuged over 12,000× g rpm for 20 min at 4 °C through the mentioned microcentrifuge. Then, pellets containing a white solid mass at the bottom (synaptosomes containing the MAO enzyme) were stored, and each pallet was diluted with PBS buffer. Aliquoting of synaptosomes was carried out and stored at −70 °C till the assay was performed.
For the evaluation of the MAO-B inhibition potential of synthesized compounds, the Amplex® Red Monoamine Oxidase Assay kit was purchased from Invitrogen Molecular Probes, Thermo Fisher Scientific, Waltham, MA, USA. This is a one-step fluorometric bioassay that principally detects the resorufin (7-Hydroxy-3H-phenoxazin-3-one), which is a fluorescent moiety formed in the presence of Horseradish Peroxidase (HRP) by the oxidation of nonfluorescent compound Amplex Red (AMR), chemically known as 10-acetyl-3,7-dihydroxyphenoxazine. The hydrogen peroxide (H2O2) was synthesized during the conversion of substrate to its aldehyde product by MAO enzyme action. […] The assay was performed according to the instruction of the manufacturer (http://tools.thermofisher.com/content/sfs/manuals/mp12214.pdf; accessed on 20 October 2020), with a few modifications. The Amplex Red reagent kit was used as compared to other H2O2 detection probes because of its stability and the stability of resorufin, which is a reaction product along with the longer wavelength spectra. Extracted MAO-B enzyme from rat brain was diluted in sodium phosphate buffer of pH 7.4, 0.25 M. The substrate for MAO-B was benzylamine. Pargyline was used as a standard. All the stock solutions of inhibitors were prepared in dimethyl sulfoxide (DMSO) 100%. Different dilutions of inhibitors were prepared in reaction buffer to obtain less than 2% (v/v) DMSO for evading false positive results. The final reaction volume contained a two-fold lower concentration of enzyme and the inhibitors. […] H2O2 working solution was diluted in the reaction buffer to prepare a final concentration of 10 µM H2O2 and used as positive control, and the reaction buffer with no H2O2 was the negative control. The reaction was started by adding 100 µL of working solution in each well of a black, opaque, 96-well microplate holding the controls and samples. A total of 50 µL of the MAO enzyme solution was added into each well. The composition of the working solution was 400 µM Amplex Red reagent, reaction buffer, 2 U/mL HRP, and 2 mM substrate solution. The possible interference that can be produced by the fluorescence of the compounds generated within the reaction mixture because of non enzymatic inhibition was eradicated by the addition of samples with Amplex Red only in the reaction buffer. The fluorescence of the blank (control with no enzyme) was subtracted to correct the background fluorescence. All the reactions were incubated at 37 °C for 30 min. […]

[2] = MAO-B extracted from rat brain, substrate benzylamine, mean of three independent measurements, read-out: MAO-B (IC50 ± SD)

O=C(CNCCc1c[nH]c2ccccc12)c1ccc(F)cc1 [SR10]
inhibition at 100 µM (Human recombinant COX-2): > 70% | IC50 (AChE from electric eel): 1 ± 0.08 µM | IC50 [1, 2]: 216.1 ± 0.29 µM

Cc1ccc(C(=O)CNCCc2c[nH]c3ccccc23)cc1 [SR14]
inhibition at 100 µM (Human recombinant COX-2): 65.3 ± 2.65% | IC50 (AChE from electric eel): 68.71 ± 0.24 µM | IC50 [1, 2]: 112.2 ± 0.29 µM

O=C(CNCCc1c[nH]c2ccccc12)c1ccc([N+](=O)[O-])cc1 [SR23]
COX-2 (%Inhibition ± SD) (Human recombinant COX-2; 100 µM): 71.40 ± 3.11% | inhibition at 100 µM (Human recombinant COX-2): 69.4 ± 3.11% | IC50 (AChE from electric eel): 7.33 ± 0.12 µM | IC50 [1, 2]: 95.1 ± 0.43 µM

O=C(CNCCc1c[nH]c2ccccc12)c1ccc2ccccc2c1 [SR08]
inhibition at 100 µM (Human recombinant COX-2): 72.3 ± 1.67% | IC50 (AChE from electric eel): 4.36 ± 0.12 µM | IC50 [1, 2]: 244.2 ± 1 µM

C#CCN(C)Cc1ccccc1 [Pargyline, reference compound]
IC50 [1, 2]: 23.4 ± 0.32 µM

O=C(CNCCc1c[nH]c2ccccc12)c1cccc([N+](=O)[O-])c1 [SR22]
inhibition at 100 µM (Human recombinant COX-2): 84.1 ± 4.53% | IC50 (AChE from electric eel): 54.88 ± 0.19 µM | IC50 [1, 2]: 56.46 ± 0.41 µM

O=C(CNCCc1c[nH]c2ccccc12)c1ccc(O)c(O)c1 [SR20]
inhibition at 100 µM (Human recombinant COX-2): 68.7 ± 3.86% | IC50 (AChE from electric eel): 24.97 ± 0.05 µM | IC50 [1, 2]: 222.1 ± 0.32 µM

O=C(NCCc1c[nH]c2ccccc12)c1cc([N+](=O)[O-])cc([N+](=O)[O-])c1 [SR42]
inhibition at 100 µM (Human recombinant COX-2): > 70% | IC50 (AChE from electric eel): 0.7 ± 0.21 µM | IC50 [1, 2]: 43.2 ± 0.46 µM

O=C(CNCCc1c[nH]c2ccccc12)c1ccc(-c2ccccc2)cc1 [SR24]
inhibition at 100 µM (Human recombinant COX-2): 79.3 ± 2.02% | IC50 (AChE from electric eel): 6.7 ± 0.08 µM | IC50 [1]: 133.2 ± 0.46 µM

NCCc1c[nH]c2ccccc12 [Tryptamine]
inhibition at 100 µM (Human recombinant COX-2): 57.3 ± 4.96% | IC50 (AChE from electric eel): 88.26 ± 0.24 µM | IC50 [1, 2]: 288.1 ± 0.32 µM

O=C(CNCCc1c[nH]c2ccccc12)c1ccccc1[N+](=O)[O-] [SR21]
inhibition at 100 µM (Human recombinant COX-2): 34.4 ± 3.34% | IC50 (AChE from electric eel): 87.73 ± 0.16 µM | IC50 [1, 2]: 142.1 ± 0.32 µM

O=C(CCNCCc1c[nH]c2ccccc12)c1ccccc1 [SR25]
inhibition at 100 µM (Human recombinant COX-2): > 70% | IC50 (AChE from electric eel): 0.17 ± 0.02 µM | IC50 [1]: 85.1 ± 0.26 µM

O=C(CNCCc1c[nH]c2ccccc12)c1ccc(F)cc1F [SR13]
inhibition at 100 µM (Human recombinant COX-2): 73.8 ± 2.37% | IC50 (AChE from electric eel): 9.68 ± 0.16 µM | IC50 [1, 2]: 50.6 ± 0.64 µM

COc1ccc(C(=O)CNCCc2c[nH]c3ccccc23)cc1 [SR17]
inhibition at 100 µM (Human recombinant COX-2): 72.8 ± 2.54% | IC50 (AChE from electric eel): 8.23 ± 0.12 µM | IC50 [1, 2]: 150.1 ± 0.26 µM
